Patent US20250136594A1 (Tango Therapeutics, Inc., priority 2022, published 2025)
pIC50: −log10 of the molar value.

Columns and labels:
[1] = test system: SDMA in HAP1 MTAP-intact cell line (PRMT5 inhibition); assay: SDMA in-cell western assay, HAP1 MTAP-intact cell line; conditions: Homo sapiens, HAP1, read-out: Hap1 MTAP intact IC50
Source text: (§1) HAP1 MTAP-intact is a cell line in which endogenous levels of MTAP are expressed, and HAP1 MTAP-deleted is an MTAP-null cell line.

[2] = test system: SDMA in HAP1 MTAP-deleted (MTAP-null) cell line (PRMT5 inhibition); assay: SDMA in-cell western assay, HAP1 MTAP-deleted cell line; conditions: for pIC50 / IC90: Homo sapiens; for pIC50: HAP1, read-out: Hap1 MTAP deleted IC50; for IC90: HAP1, read-out: Hap1 MTAP deleted IC90; for Hap1 MTAP intact/deleted ratio: ratio of SDMA IC50 in HAP1 MTAP-intact to HAP1 MTAP-deleted cell line
Source text: as §1

[3] = test system: HAP1 MTAP-deleted cell line; assay: Viability assay, HAP1 MTAP-deleted cell line; type: cell-based; conditions: Homo sapiens; viability assay, HAP1 MTAP-deleted cell line; read-out: Hap1 MTAP deleted viability IC50

Compound | pIC50 [1] | pIC50 [2] | IC90 [2] [nM] | Hap1 MTAP intact/deleted ratio [2] | pIC50 [3]
CC(C)CN(C(=O)C(=O)Nc1cnc(N)c2cn[nH]c12)[C@@H](C)c1ccccc1 [Compound 165, (S)—N^1-(4-amino-1H-pyrazolo[4,3-c]pyridin-7-yl)-N^2-isobutyl-N^2-(1-phenylethyl)oxalamide] | < 7.30 | 7.30 to 8.30 | 75 to 125 | A (IC50 ratio greater than or equal to 30 fold) | > 7.00
Cc1cc(NC(=O)C(=O)N(Cc2ccc(C(F)(F)F)cn2)[C@@H]2CC[C@@H](C)c3ccccc32)cnc1N (stereo in doubt) [Compound 51, N-(6-amino-5-methyl-3-pyridyl)-N′-(4-methyltetralin-1-yl)-N′-[[5-(trifluoromethyl)-2-pyridyl]methyl]oxamide] | 7.30 to 8.30 | > 8.30 | < 75 | C (IC50 ratio of less than 15 fold) | > 7.00
Nc1ncc(NC(=O)C(=O)N(Cc2ccccc2)Cc2ccccc2C(F)(F)F)c2[nH]ncc12 [Compound 95, N-(4-amino-1H-pyrazolo[4,3-c]pyridin-7-yl)-N′-benzyl-N′-[[2-(trifluoromethyl)phenyl]methyl]oxamide] | > 8.30 | > 8.30 | < 75 | C (IC50 ratio of less than 15 fold) | > 7.00
O=C(Nc1ccn2ccnc2c1)C(=O)N(Cc1ccc(C(F)(F)F)cn1)[C@@H]1CCc2ccccc21 [Compound 15, (R)—N^1-(2,3-dihydro-1H-inden-1-yl)-N^2-(imidazo[1,2-a]pyridin-7-yl)-N^1-((5-(trifluoromethyl)pyridin-2-yl)methyl)oxalamide] | < 7.30 | 7.30 to 8.30 | > 125 | A (IC50 ratio greater than or equal to 30 fold) | 6.00 to 7.00
Cc1cccnc1CN(Cc1ccccc1)C(=O)C(=O)Nc1cnc(N)c2cn[nH]c12 [Compound 114, N-(4-amino-1H-pyrazolo[4,3-c]pyridin-7-yl)-N′-benzyl-N′-[(3-methyl-2-pyridyl)methyl]oxamide] | 7.30 to 8.30 | > 8.30 | < 75 | C (IC50 ratio of less than 15 fold) | > 7.00
Cc1c(CN(Cc2ccccn2)C(=O)C(=O)Nc2cnc(N)c3cn[nH]c23)cccc1N(C)C [Compound 124, N1-(4-amino-1H-pyrazolo[4,3-c]pyridin-7-yl)-N^2-(3-(dimethylamino)-2-methylbenzyl)-N^2-(pyridin-2-ylmethyl)oxalamide] | 7.30 to 8.30 | > 8.30 | < 75 | C (IC50 ratio of less than 15 fold) | > 7.00
CNc1cccc(CN(Cc2ccccc2)C(=O)C(=O)Nc2cnc(N)c3cn[nH]c23)c1 [Compound 93, N-(4-amino-1H-pyrazolo[4,3-c]pyridin-7-yl)-N′-benzyl-N′-[[3-(methylamino)phenyl]methyl]oxamide] | 7.30 to 8.30 | > 8.30 | < 75 | B (IC50 ratio greater than or equal to 15 fold but lower than 30 fold) | > 7.00
CCN(Cc1ccc(S(F)(F)(F)(F)F)cc1C)C(=O)C(=O)Nc1cnc(N)c2cn[nH]c12 [Compound 194, N-(4-Amino-1H-pyrazolo[4,3-c]pyridin-7-yl)-N′-ethyl-N′-[[2-methyl-4-(pentafluoro-sulfanyl)phenyl]methyl]oxamide] | 7.30 to 8.30 | > 8.30 | < 75 | B (IC50 ratio greater than or equal to 15 fold but lower than 30 fold) | > 7.00
Cc1ccc(CN(Cc2ccccc2)C(=O)C(=O)Nc2cnc(N)c3cn[nH]c23)nc1 [Compound 179, N-(4-amino-1H-pyrazolo[4,3-c]pyridin-7-yl)-N′-benzyl-N′-[(5-methyl-2-pyridyl)methyl]oxamide] | 7.30 to 8.30 | > 8.30 | < 75 | A (IC50 ratio greater than or equal to 30 fold) | > 7.00
COC[C@@H](C1CC1)N(Cc1ccc(C(F)(F)F)cn1)C(=O)C(=O)Nc1ccn2ccnc2c1 [Compound 31, (R)—N^1-(1-cyclopropyl-2-methoxyethyl)-N^2-(imidazo[1,2-a]pyridin-7-yl)-N^1-((5-(trifluoromethyl)pyridin-2-yl)methyl)oxalamide] | < 7.30 | 7.30 to 8.30 | > 125 | B (IC50 ratio greater than or equal to 15 fold but lower than 30 fold) | 6.00 to 7.00
Nc1ncc(NC(=O)C(=O)N(Cc2ccccc2)Cc2ccc(Cl)cn2)c2[nH]ncc12 [Compound 158, N-(4-amino-1H-pyrazolo[4,3-c]pyridin-7-yl)-N′-benzyl-N′-[(5-chloro-2-pyridyl)methyl]oxamide] | 7.30 to 8.30 | > 8.30 | < 75 | C (IC50 ratio of less than 15 fold) | > 7.00
Nc1ncc(NC(=O)C(=O)N(Cc2ccc(C(F)(F)F)cc2)C2CC2)c2[nH]ncc12 [Compound 107, N-(4-Amino-1H-pyrazolo[4,3-c]pyridin-7-yl)-N′-cyclopropyl-N′-[[4-(trifluoromethyl)phenyl]methyl]oxamide] | 7.30 to 8.30 | > 8.30 | < 75 | C (IC50 ratio of less than 15 fold) | > 7.00
Cc1cc(F)ccc1CN(CC(C)C)C(=O)C(=O)Nc1cnc(N)c2cn[nH]c12 [Compound 71, N-(4-amino-1H-pyrazolo[4,3-c]pyridin-7-yl)-N′-[(4-fluoro-2-methyl-phenyl)methyl]-N′-isobutyl-oxamide] | < 7.30 | > 8.30 | < 75 | A (IC50 ratio greater than or equal to 30 fold) | > 7.00
CCc1cc(NC(=O)C(=O)N(Cc2ccc(C(F)(F)F)cn2)[C@@H]2CCc3ccccc32)cnc1N [Compound 36, (R)-N1-(6-amino-5-ethylpyridin-3-yl)-N2-(2,3-dihydro-1H-inden-1-yl)-N2-((5-(trifluoromethyl)pyridin-2-yl)methyl)oxalamide] | < 7.30 | 7.30 to 8.30 | 75 to 125 | A (IC50 ratio greater than or equal to 30 fold) | > 7.00
C[C@H](c1ccc(C(F)(F)F)cc1F)N(C)C(=O)C(=O)Nc1cnc(N)c2c1cnn2C [Compound 84, N-(7-Amino-1-methyl-pyrazolo[3,4-c]pyridin-4-yl)-N′-methyl-N′—[(1R)-1-[2-fluoro-4-(trifluoromethyl)phenyl]ethyl]oxamide] | 7.30 to 8.30 | > 8.30 | < 75 | A (IC50 ratio greater than or equal to 30 fold) | > 7.00
CCN(Cc1ccc(C(F)(F)C(F)(F)F)cc1C)C(=O)C(=O)Nc1cnc(N)c2cn[nH]c12 [Compound 99] | < 7.30 | > 8.30 | < 75 | A (IC50 ratio greater than or equal to 30 fold) | > 7.00
CC[C@@H](C)CN(Cc1ccccc1C)C(=O)C(=O)Nc1cnc(N)c2cn[nH]c12 [Compound 62, (R)—N^1-(4-amino-1H-pyrazolo[4,3-c]pyridin-7-yl)-N^2-(2-methylbenzyl)-N^2-(2-methylbutyl)oxalamide] | 7.30 to 8.30 | > 8.30 | < 75 | A (IC50 ratio greater than or equal to 30 fold) | > 7.00
CC(C)CN(Cc1ccc(S(F)(F)(F)(F)F)cc1)C(=O)C(=O)Nc1cnc(N)c2cn[nH]c12 [Compound 110] | 7.30 to 8.30 | > 8.30 | < 75 | C (IC50 ratio of less than 15 fold) | > 7.00
CC(c1ccc(C(F)(F)F)cn1)N(C)C(=O)C(=O)Nc1cnc(N)c2cn[nH]c12 (racemic) [Compound 178, N-(4-amino-1H-pyrazolo[4,3-c]pyridin-7-yl)-N′-methyl-N′-[1-[5-(trifluoromethyl)-2-pyridyl]ethyl]oxamide] | < 7.30 | > 8.30 | < 75 | A (IC50 ratio greater than or equal to 30 fold) | 6.00 to 7.00
Nc1ncc(NC(=O)C(=O)N(Cc2ccccc2)Cc2ncccn2)c2[nH]ncc12 [Compound 14, N-(4-amino-1H-pyrazolo[4,3-c]pyridin-7-yl)-N′-benzyl-N′-(pyrimidin-2-ylmethyl)oxamide] | < 7.30 | > 8.30 | 75 to 125 | A (IC50 ratio greater than or equal to 30 fold) | > 7.00
Nc1ncc(NC(=O)C(=O)N(Cc2ccc(C(F)(F)F)cn2)[C@@H]2CCC[C@H]2OC(F)F)c2[nH]ncc12 [Compound 43, N1-(4-amino-1H-pyrazolo[4,3-c]pyridin-7-yl)-N^2-((1R,2R)-2-(difluoromethoxy)cyclopentyl)-N^2-((5-(trifluoromethyl)pyridin-2-yl)methyl)oxalamide] | 7.30 to 8.30 | > 8.30 | < 75 | C (IC50 ratio of less than 15 fold) | > 7.00
Cc1ccc(CN(Cc2ccccc2)C(=O)C(=O)Nc2cnc(N)c3cn[nH]c23)c(C)c1 [Compound 98, N-(4-amino-1H-pyrazolo[4,3-c]pyridin-7-yl)-N′-benzyl-N′—[(2,4-dimethylphenyl)methyl]oxamide] | 7.30 to 8.30 | > 8.30 | < 75 | B (IC50 ratio greater than or equal to 15 fold but lower than 30 fold) | > 7.00
